Measurements taken from ChEMBL document CHEMBL1201862, “PubChem BioAssay data set” (2004).
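How tested: cells in 96-well plates exposed to compound for 48 hours at five concentrations. GI50 = concentration required for 50% inhibition of growth.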 The source made the active and inactive calls. Cut-off read from the data, not from the text of the source: active = GI50 up to about 1.1 µM and inactive = higher.

Legend:
Assay in all cases: NCI anticancer screen, dose series, 48 h
COLO 205 = system: COLO 205
MOLT-4 = system: MOLT-4
LOX IMVI = system: LOX IMVI
NCI-H226 = system: NCI-H226
UACC-62 = system: UACC-62
SK-MEL-5 = system: SK-MEL-5
HCT-15 = system: HCT-15
Malme-3M = system: Malme-3M
K562 = system: K562
RPMI-8226 = system: RPMI-8226
SF-539 = system: SF-539
A498 = system: A498
UO-31 = system: UO-31
SNB-75 = system: SNB-75
HOP-92 = system: HOP-92
HCT-116 = system: HCT-116
TK-10 = system: TK-10
EKVX = system: EKVX
UACC-257 = system: UACC-257
HCC 2998 = system: HCC 2998

SMILES	GI50 (COLO 205)	GI50 (MOLT-4)	GI50 (LOX IMVI)	GI50 (NCI-H226)	GI50 (UACC-62)	GI50 (SK-MEL-5)	GI50 (HCT-15) [µM]	GI50 (Malme-3M)	GI50 (K562)	GI50 (RPMI-8226)	GI50 (SF-539)	GI50 (A498)	GI50 (UO-31)	GI50 (SNB-75)	GI50 (HOP-92)	GI50 (HCT-116)	GI50 (TK-10)	GI50 (EKVX)	GI50 (UACC-257)	GI50 (HCC 2998)
C#CC1(O)C(COP(=O)(O)OC(COCCCCCCCCCCCCCCCCCC)COP(=O)(O)OCC2OC(n3cc(C)c(=O)[nH]c3=O)CC2N=[N+]=[N-])OC(n2ccc(N)nc2=O)C1O (stereo unspecified)	0.512 µM (active)	0.347 µM (active)	0.224 µM (active)	1.56 µM (inactive)	1.88 µM (inactive)	2.75 µM (inactive)	0.582	1.66 µM (inactive)	0.216 µM (active)	0.0644 µM (active)	0.282 µM (active)	1.69 µM (inactive)	0.194 µM (active)	2.52 µM (inactive)	0.91 µM (active)	0.105 µM (active)	0.505 µM (active)	5.25 µM (inactive)	3.77 µM (inactive)	
N#Cc1ccc([N+](=O)[O-])cc1NC(N)=S	> 100 µM (inactive)	> 100 µM (inactive)				> 100 µM (inactive)	> 100	> 100 µM (inactive)		> 100 µM (inactive)	> 100 µM (inactive)	> 100 µM (inactive)	> 100 µM (inactive)	> 100 µM (inactive)	> 100 µM (inactive)	> 100 µM (inactive)		> 100 µM (inactive)		> 100 µM (inactive)
N=C(N)SCCN1CCCCC1	> 100 µM (inactive)	20.6 µM (inactive)	20.2 µM (inactive)	21.4 µM (inactive)	23.4 µM (inactive)	48 µM (inactive)	25.6	12.5 µM (inactive)	20 µM (inactive)	14.1 µM (inactive)	35.7 µM (inactive)	48.6 µM (inactive)	25.5 µM (inactive)	37.4 µM (inactive)	27.9 µM (inactive)	26.7 µM (inactive)	43.7 µM (inactive)	60.3 µM (inactive)	18.6 µM (inactive)	
O=c1c2cc([N+](=O)[O-])ccc2nc2n1CCCCC2	> 100 µM (inactive)	> 100 µM (inactive)	> 100 µM (inactive)	> 100 µM (inactive)	> 100 µM (inactive)	> 100 µM (inactive)	> 100	> 100 µM (inactive)	> 100 µM (inactive)	> 100 µM (inactive)	> 100 µM (inactive)	87.9 µM (inactive)	> 100 µM (inactive)	57.1 µM (inactive)	> 100 µM (inactive)	> 100 µM (inactive)	> 100 µM (inactive)	66.4 µM (inactive)	> 100 µM (inactive)	
O=C1NC2NC3NC(=O)NC3NC2N1 (stereo unspecified)	> 100 µM (inactive)	> 100 µM (inactive)	> 100 µM (inactive)	> 100 µM (inactive)	> 100 µM (inactive)	> 100 µM (inactive)		> 100 µM (inactive)	> 100 µM (inactive)	> 100 µM (inactive)	> 100 µM (inactive)	> 100 µM (inactive)	> 100 µM (inactive)	76.4 µM (inactive)	> 100 µM (inactive)	> 100 µM (inactive)		> 100 µM (inactive)	> 100 µM (inactive)	
CCC1N2CCCCC2[C@@H]2c3[nH]c4ccccc4c3CCN12 (stereo partly specified)	> 100 µM (inactive)	> 100 µM (inactive)			> 100 µM (inactive)	> 100 µM (inactive)	> 100	> 100 µM (inactive)	> 100 µM (inactive)	> 100 µM (inactive)	> 100 µM (inactive)	> 100 µM (inactive)	> 100 µM (inactive)	77.8 µM (inactive)	> 100 µM (inactive)	> 100 µM (inactive)	> 100 µM (inactive)	> 100 µM (inactive)	> 100 µM (inactive)	> 100 µM (inactive)
